Results as given in patent publication US11324762B2, “Deuterated derivatives of psilocybin and uses thereof” (Lennham Pharmaceuticals, Inc., priority 2020, dated 2022).

Assays:
Assay type in all cases: in vitro ADME
[1] = target: T1, human MAO-A (Homo sapiens, UniProt P21397); assay: metabolism of psilocin by human MAO-A (Example 2); details: 0.2 and 2 μM, protein 0.03-1 mg/ml, 0-30 min, FIGS. 1A & 1B
T1 sequence (P21397 1-527): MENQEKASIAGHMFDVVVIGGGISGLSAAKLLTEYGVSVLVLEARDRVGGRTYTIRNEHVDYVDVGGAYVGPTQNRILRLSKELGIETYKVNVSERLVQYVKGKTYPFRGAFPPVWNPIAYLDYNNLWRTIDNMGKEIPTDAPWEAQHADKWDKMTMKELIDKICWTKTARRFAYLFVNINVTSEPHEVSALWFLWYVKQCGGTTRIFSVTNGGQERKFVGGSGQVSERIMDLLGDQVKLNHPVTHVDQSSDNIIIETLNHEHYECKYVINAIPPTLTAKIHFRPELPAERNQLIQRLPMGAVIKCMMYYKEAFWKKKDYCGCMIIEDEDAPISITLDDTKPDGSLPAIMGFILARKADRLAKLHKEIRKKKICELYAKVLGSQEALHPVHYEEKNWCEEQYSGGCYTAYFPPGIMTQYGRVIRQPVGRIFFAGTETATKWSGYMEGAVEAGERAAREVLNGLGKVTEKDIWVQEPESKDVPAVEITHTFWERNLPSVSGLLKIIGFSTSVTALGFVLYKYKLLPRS

[2] = metabolic stability and metabolite formation in human hepatocytes; details: 1.0 million viable cells/ml, 37° C., 0-60 min
Description: (§1) A study was conducted to assess the metabolic stability and metabolite formulation of psilocin and d10-psilocin (the compound of Formula (IB-1)) in human hepatocytes under the conditions set forth in Table 1.

[3] = test system: human hepatocytes; assay: as above; details: 1 μM, 60 min
Description: as §1

[4] = target: T1, human MAO-A; assay: metabolism of psilocin and d10-psilocin by human MAO-A (Example 3); details: 0.2 μM, protein 1 mg/ml, 0-30 min, FIG. 2
Description: A study was conducted to assess the metabolism of psilocin and d10-psilocin (the compound of Formula (IB-1)) by human MAO-A under the conditions set forth in Table 3.

Structure (SMILES) | metabolism by human MAO-A [1] | half-life at 1 μM [2] | parent remained after the 60-minute incubation [3] | rate of metabolism by human MAO-A compared with psilocin [4] | metabolite 4-hydroxy-indole-3-acetic acid after 60-minute incubation [3]
CN(C)CCc1c[nH]c2cccc(O)c12 [psilocin, 4-hydroxy-N,N-dimethyltryptamine] | metabolized by human MAO-A | 2.97 h | approximately 78% |  | 
[2H]C([2H])([2H])N(C([2H])([2H])[2H])C([2H])([2H])C([2H])([2H])c1c[nH]c2cccc(O)c12 [d10-psilocin] |  | 4.97 h | approximately 84% | metabolized more slowly by human MAO-A than psilocin | undetected
